According to ChEMBL document CHEMBL1201862, “PubChem BioAssay data set” (2004):
The source made the active and inactive calls.

Legend:
Caspase-9 = biological target: T1, Caspase-9 (Homo sapiens, UniProt P55211); experiment: inhibitors of purified CASP9 protease – biochemical, fluorescence, plate reader, cherry-picked samples, selectivity assay for caspase-6 inhibitor project, dose response (AID 743293)
T1 sequence (P55211 whole entry): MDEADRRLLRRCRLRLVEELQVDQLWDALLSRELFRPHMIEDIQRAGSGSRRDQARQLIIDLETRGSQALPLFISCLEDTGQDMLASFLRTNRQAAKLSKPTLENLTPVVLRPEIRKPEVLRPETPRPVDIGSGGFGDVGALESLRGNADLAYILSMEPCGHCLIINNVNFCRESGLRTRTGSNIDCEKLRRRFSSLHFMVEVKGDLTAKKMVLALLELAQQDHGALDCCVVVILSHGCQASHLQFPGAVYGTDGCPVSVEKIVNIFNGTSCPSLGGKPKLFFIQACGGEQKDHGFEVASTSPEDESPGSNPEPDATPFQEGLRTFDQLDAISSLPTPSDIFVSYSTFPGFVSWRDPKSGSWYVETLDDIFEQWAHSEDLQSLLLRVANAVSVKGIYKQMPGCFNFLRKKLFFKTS

[1] = DRD fibroblast viability loss – cell-based, non-viral oncogenic, luminescence, dose response (AID 1934); type: functional; conditions: Homo sapiens
Galanin receptor type 3 = biological target: T2, Galanin receptor type 3 (Homo sapiens, UniProt O60755); experiment: Fluorescence-based cell-based primary high throughput dose response assay to identify antagonists of the Galanin Receptor 3 (GalR3).; type: functional
T2 sequence (O60755 whole entry): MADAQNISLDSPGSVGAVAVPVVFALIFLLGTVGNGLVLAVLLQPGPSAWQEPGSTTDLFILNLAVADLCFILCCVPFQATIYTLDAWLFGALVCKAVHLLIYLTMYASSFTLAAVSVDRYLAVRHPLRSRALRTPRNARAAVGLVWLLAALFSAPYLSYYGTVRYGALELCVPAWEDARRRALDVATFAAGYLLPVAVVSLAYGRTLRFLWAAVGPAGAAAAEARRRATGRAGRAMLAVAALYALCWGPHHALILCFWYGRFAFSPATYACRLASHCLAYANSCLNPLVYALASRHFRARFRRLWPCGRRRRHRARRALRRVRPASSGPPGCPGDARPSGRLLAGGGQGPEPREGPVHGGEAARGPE

[2] = biological target: T3, Serine/threonine-protein phosphatase (Candida dubliniensis (strain CD36 / CBS 7987 / NCPF 3949 / NRRLY-17841) (Yeast), UniProt B9W6M3); experiment: blockers of CaCl2-induced CDRE-lacZ signaling – S. cerevisiae, luminescence, secondary, dose response (AID 2388); type: functional, cell-based;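 further: yeast reporter cells carrying a calcineurin-responsive lacZ construct stimulated with calcium chloride; luminescent beta-galactosidase reporter signal in whole cells rather than isolated phosphatase activity; potency for inhibition where a drop in reporter signal means calcineurin blockade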
T3 sequence (B9W6M3 whole entry): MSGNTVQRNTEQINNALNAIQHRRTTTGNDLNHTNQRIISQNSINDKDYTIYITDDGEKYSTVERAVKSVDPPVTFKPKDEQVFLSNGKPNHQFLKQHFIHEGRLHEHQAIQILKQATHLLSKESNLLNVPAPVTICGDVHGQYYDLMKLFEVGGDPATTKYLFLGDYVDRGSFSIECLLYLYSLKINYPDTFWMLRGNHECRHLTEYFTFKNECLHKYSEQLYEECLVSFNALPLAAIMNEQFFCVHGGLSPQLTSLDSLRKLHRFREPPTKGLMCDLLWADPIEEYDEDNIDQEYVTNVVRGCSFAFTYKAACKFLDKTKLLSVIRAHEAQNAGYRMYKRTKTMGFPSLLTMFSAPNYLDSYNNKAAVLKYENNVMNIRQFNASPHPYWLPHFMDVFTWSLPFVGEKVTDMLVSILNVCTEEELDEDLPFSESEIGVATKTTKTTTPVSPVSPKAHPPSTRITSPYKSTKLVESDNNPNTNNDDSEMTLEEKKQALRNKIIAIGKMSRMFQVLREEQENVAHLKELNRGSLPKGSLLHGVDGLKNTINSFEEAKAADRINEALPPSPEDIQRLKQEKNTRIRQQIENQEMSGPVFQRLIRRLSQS

cells = type: functional, cell-based
[3] = biological target: T4, Histone-lysine N-methyltransferase NSD2 (Homo sapiens, UniProt O96028); type: biochemical
T4 sequence (O96028 whole entry): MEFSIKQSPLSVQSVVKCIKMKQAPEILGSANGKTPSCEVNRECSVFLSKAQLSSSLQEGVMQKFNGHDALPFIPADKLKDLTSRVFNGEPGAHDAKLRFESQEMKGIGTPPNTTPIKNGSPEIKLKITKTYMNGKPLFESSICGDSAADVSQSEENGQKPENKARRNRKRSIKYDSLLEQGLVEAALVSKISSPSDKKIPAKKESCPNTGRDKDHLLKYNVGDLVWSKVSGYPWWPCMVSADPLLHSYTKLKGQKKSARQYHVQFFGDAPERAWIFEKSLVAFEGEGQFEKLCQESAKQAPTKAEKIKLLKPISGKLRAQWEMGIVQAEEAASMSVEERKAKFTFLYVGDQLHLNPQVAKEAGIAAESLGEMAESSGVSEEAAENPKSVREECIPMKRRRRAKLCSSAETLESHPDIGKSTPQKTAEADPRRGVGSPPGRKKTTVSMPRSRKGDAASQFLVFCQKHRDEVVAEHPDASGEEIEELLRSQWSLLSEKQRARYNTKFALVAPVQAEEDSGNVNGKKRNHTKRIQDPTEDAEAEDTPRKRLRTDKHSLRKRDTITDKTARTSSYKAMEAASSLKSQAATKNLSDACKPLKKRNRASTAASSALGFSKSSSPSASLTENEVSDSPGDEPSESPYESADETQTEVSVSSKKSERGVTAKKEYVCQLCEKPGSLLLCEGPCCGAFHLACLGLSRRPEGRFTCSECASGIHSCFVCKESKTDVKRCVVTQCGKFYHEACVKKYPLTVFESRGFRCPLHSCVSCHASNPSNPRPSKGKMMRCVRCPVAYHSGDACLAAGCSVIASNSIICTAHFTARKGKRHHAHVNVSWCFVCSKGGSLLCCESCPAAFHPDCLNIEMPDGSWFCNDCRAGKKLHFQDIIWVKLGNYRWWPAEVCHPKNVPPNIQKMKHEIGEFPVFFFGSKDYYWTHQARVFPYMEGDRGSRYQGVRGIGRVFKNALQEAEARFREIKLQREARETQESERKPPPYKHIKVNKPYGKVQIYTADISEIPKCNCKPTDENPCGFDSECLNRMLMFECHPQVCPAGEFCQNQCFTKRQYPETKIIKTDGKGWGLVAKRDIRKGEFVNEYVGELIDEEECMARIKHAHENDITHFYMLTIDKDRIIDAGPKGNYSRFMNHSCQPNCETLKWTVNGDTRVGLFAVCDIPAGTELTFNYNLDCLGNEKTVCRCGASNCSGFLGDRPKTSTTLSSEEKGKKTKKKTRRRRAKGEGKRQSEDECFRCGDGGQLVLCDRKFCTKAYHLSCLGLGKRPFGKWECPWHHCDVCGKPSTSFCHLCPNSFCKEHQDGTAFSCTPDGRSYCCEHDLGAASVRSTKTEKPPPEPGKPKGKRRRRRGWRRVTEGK

Cn1nc(-c2ccccn2)nc2c(=O)n(C)c(=O)nc1-2
AC50 (Caspase-9): 317 nM (active)

CCCCCCCCCCn1c2c(c(=N)c3c1CCC3)CCC2
EC50 [1]: 3.44 µM (inconclusive)
IC50 (Galanin receptor type 3): > 1.11 µM (active)

CCC(=O)NC(c1ccc(OC)cc1)c1cc(Cl)c2cccnc2c1O (stereo unspecified)
EC50 [2]: > 180 µM (inactive)
EC50 (cells): 19 µM (active)

COc1ccc(NS(=O)(=O)c2ccc3c(c2)[C@H]2C=CC[C@H]2[C@@H](c2ccc(C(=O)O)cc2)N3)cc1
AC50 [3]: > 20 µM (inactive)
